By IC50 is commonly meant the concentration at which inhibition is half-maximal.

Consider 79 molecules from US20250346584A1, “NOVEL KAPPA OPIOID LIGANDS” (The Scripps Research Institute, priority 2012, published 2025).

For this assay, the target named is kappa opioid receptor (OPRK1) (Homo sapiens (Human), UniProt P41145). As to the kind of experiment: OPRK1 antagonist assay (b-arrestin-2-TEV / b-lactamase reporter cell line, EC80 U-50488 challenge). The assay is classed as cell-based. To be noted: read-out: IC50 nM (% inhib if other than 50%); antagonist mode vs EC80 U-50488; NA = not active at concentrations up to 10 μM.
kappa opioid receptor (OPRK1), sequence (P41145 whole entry): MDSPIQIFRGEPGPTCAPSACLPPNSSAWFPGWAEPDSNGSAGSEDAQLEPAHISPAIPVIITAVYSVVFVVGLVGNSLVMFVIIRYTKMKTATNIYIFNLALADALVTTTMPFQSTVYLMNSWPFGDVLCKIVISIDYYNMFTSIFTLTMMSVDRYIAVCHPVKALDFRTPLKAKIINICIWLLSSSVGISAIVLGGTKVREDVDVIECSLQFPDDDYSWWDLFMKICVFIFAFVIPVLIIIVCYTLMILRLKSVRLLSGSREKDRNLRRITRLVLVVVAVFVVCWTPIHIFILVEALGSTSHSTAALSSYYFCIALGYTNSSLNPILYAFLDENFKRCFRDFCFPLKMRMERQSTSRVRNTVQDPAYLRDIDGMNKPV

Turning to `COC(=O)c1cc(F)cnc1N1CCC(NC2CCCCC2)CC1` [compound 72], the IC50 stood at 6600 nM. Consider `COC(=O)c1cc(Br)cnc1N1CCC(NC2CCCCC2)C(OC)C1` (stereo not shown) [compound 73], for which the IC50 stood at 205 nM. Consider `COC(=O)c1cc(Br)cnc1N1CCC(NC2CCCCCC2)C(CO)C1` (stereo not shown) [compound 74], for which the IC50 came out at 58 nM. With `COC(=O)c1cc(I)cnc1N1CCC(NC2CCCCCC2)C(CO)C1` (stereo not shown) [compound 75], the concentration for half-maximal inhibition (IC50) was found to be 36 nM. Take `OCc1cc(Br)cnc1N1CCC(NC2CCCCC2)CC1` [compound 76]: the IC50 was 11300 nM.

As for `COC(=O)c1cc(I)cnc1N1CCC(NC2CCCCC2)C(CO)C1` (stereo not shown) [compound 77], the IC50 turned out to be 11 nM.

Take `COC(=O)c1cc(Br)cnc1N1CCC(NC2CC2)CC1` [compound 78]: the half-maximal inhibitory concentration (IC50) is 1200 nM. The figure for `COC(=O)c1cc(Br)cnc1N1CCC(NC2CCCC2)C(CO)C1` (stereo not shown) [compound 79] is 25 nM; for `COC(=O)c1cc(Br)cnc1N1CCC(NC2CCCCC2C)C(CO)C1` (stereo not shown) [compound 80] it is 87 nM; for `COC(=O)c1cc(Br)cnc1N1CCC(NC2CCOCC2)C(CO)C1` (stereo not shown) [compound 81] it is 126 nM. Take `COC(=O)c1cc(Br)cnc1N1CCC(NC2CCCCC2OC)C(CO)C1` (stereo not shown) [compound 82]: the half-inhibitory concentration (IC50) was determined as 127 nM. For the molecule `COC(=O)c1cc(Br)cnc1N1CCC(N)C(O)C1` (stereo not shown) [compound 83], the IC50 was 5900 nM. Under `COC(=O)c1cc([N+](=O)[O-])cnc1N1CCC(NC2CCCCC2)CC1` [compound 84] stands 6200 nM; under `COC(=O)c1cc(N)cnc1N1CCC(NC2CCCCC2)CC1` [compound 85], 1800 nM. For the molecule `COC(=O)c1cc(NC(C)=O)cnc1N1CCC(NC2CCCCC2)CC1` [compound 86], the concentration for half-maximal inhibition (IC50) amounted to 628 nM. Consider `CNC(=O)c1cc(Br)cnc1N1CCC(NC2CCCCC2)CC1` [compound 87], for which the IC50 came out at 19000 nM. The figure for `COC(=O)c1cc(I)cnc1N1CCC(NC2CCCC2)C(CO)C1` (stereo not shown) [compound 88] is 52 nM. Turning to `COC(=O)c1cc(I)cnc1N1CCC(NC2CCCCC2C)C(CO)C1` (stereo not shown) [compound 89], the IC50 was determined as 116 nM.

In the case of `COC(=O)c1cc(I)cnc1N1CCC(NC2CCOCC2)C(CO)C1` (stereo not shown) [compound 90], the IC50 amounted to 186 nM. With `COC(=O)c1cc(I)cnc1N1CCC(NC2CCCCC2OC)C(CO)C1` (stereo not shown) [compound 91], the 50% inhibitory concentration (IC50) was 198 nM. For `CCOC(=O)c1cc(C(=O)OC)c(C)nc1N1CCC(NC2CCCCC2)CC1` [compound 92], the IC50 worked out at 2600 nM. The figure for `CCOC(=O)c1cc(C(=O)OC)c(C)nc1N1CCC(NC2CCCCC2)C(CO)C1` (stereo not shown) [compound 93] is 621 nM; for `CCOC(=O)c1cc(C(=O)OC)c(C)nc1N1CCC(NC2CCCCC2)C(O)C1` (stereo not shown) [compound 94] it is 61 nM; for `CCCC(=O)Nc1cnc(N2CCC(NC3CCCCC3)CC2)c(C(=O)OC)c1` [compound 95] it is 1.4 nM. On to `CC(=O)c1cc(Br)cnc1N1CCC(NC2CCCCC2)CC1` [compound 96], for which the IC50 was 6700 nM.

Take `CC(=O)c1cc(Br)cnc1N1CCC(NC2CCCCC2)C(CO)C1` (stereo not shown) [compound 97]: the IC50 was 2000 nM.

In the case of `COC(=O)c1cc([N+](=O)[O-])cnc1N1CCC(NC2CCCCC2)C(O)C1` (stereo not shown) [compound 98], the IC50 was 1100 nM.

For `CC(=O)c1cc(Br)cnc1N1CCC(NC2CCCCC2)C(O)C1` (stereo not shown) [compound 99], the IC50 was found to be 4500 nM. Regarding `CCO/N=C/c1cc(Br)cnc1N1CCC(NC2CCCCC2)CC1` [compound 101], the half-inhibitory concentration (IC50) came to 4000 nM.

As for `CCOC(=O)c1cc(C(=O)OC)c(C)nc1N1CCC(NC2CCCCC2)C1` (stereo not shown) [compound 104], the 50% inhibitory concentration (IC50) came to 2200 nM. As to `COC(=O)c1cc(I)cnc1N1CC[C@@H](NC2CCCCC2)[C@H](O)C1` [compound 106], the IC50 worked out at 24 nM.

For the molecule `CCc1noc(-c2cc(Br)cnc2N2CCC(NC3CCCCC3)CC2)n1` [compound 107], the IC50 stood at 11000 nM. For `COC(=O)c1cc(C)cnc1N1CCC(NC2CCCCC2)CC1` [compound 108], the 50% inhibitory concentration (IC50) amounted to 404 nM. In the case of `COC(=O)c1cc(C)cnc1N1CCC(NC2CCCCC2)C(CO)C1` (stereo not shown) [compound 109], the IC50 was determined as 198 nM. With `COC(=O)c1cc(C)cnc1N1CCC(NC2CCCCC2)C(O)C1` (stereo not shown) [compound 110], the IC50 worked out at 108 nM. Under `COC(=O)c1cc(Cl)cnc1N1CC[C@H](NC2CCCCC2)[C@@H](O)C1` [compound 111] stands 281 nM. On to `COC(=O)c1cc(Br)cnc1N1CCC(NC2CCCCC2)C(C(=O)OC)C1` (stereo not shown) [compound 113], for which the half-maximal inhibitory concentration (IC50) was found to be 2000 nM. The figure for `COC(=O)c1cc(Br)cnc1N1CCC(NC2CCCC2)C(C(=O)OC)C1` (stereo not shown) [compound 114] is 1200 nM; for `COC(=O)c1cc(Br)cnc1N1CCC(NC2CCCCCC2)C(C(=O)OC)C1` (stereo not shown) [compound 115] it is 1700 nM. Consider `COC(=O)c1cc(Br)cnc1N1CCC(NC2CCCCC2)C(C(=O)OC)C1` (stereo not shown) [compound 116], for which the IC50 worked out at 793 nM. Under `COC(=O)c1cc(Br)cnc1N1CCC(NC2CCCC2)C(C(=O)OC)C1` (stereo not shown) [compound 117] stands 3800 nM. The figure for `COC(=O)c1cc(Br)cnc1N1CCC(NC2CCCCCC2)C(C(=O)OC)C1` (stereo not shown) [compound 118] is 661 nM. Under `CCOC(=O)c1cc(C(=O)OC)c(C)nc1N1CC[C@@H](NC2CCCCC2)[C@H](O)C1` [compound 119] stands 12 nM.

On to `COC(=O)c1cc(Br)cnc1N1CCC(NC2CCCCC2)C(OC)C1` (stereo not shown) [compound 122], for which the IC50 came to 125 nM. Turning to `COC(=O)c1cc(I)cnc1N1CCC(NC2CCCCC2)C(OC)C1` (stereo not shown) [compound 123], the IC50 came out at 11 nM.

Regarding `COC(=O)c1cc(I)cnc1N1CCC(NC2CCCCC2)C(O)C1` (stereo not shown) [compound 126], the IC50 was found to be 112 nM. The figure for `CC(=O)c1cc(Br)cnc1N1CC[C@@H](NC2CCCCC2)[C@H](O)C1` [compound 127] is 33 nM. `COC(=O)c1cc(C)cnc1N1CC[C@@H](NC2CCCCC2)[C@H](O)C1` [compound 128]: the IC50 worked out at 35 nM.

With `O=Cc1cc(Br)cnc1N1CC[C@@H](NC2CCCCC2)[C@H](O)C1` [compound 129], the half-inhibitory concentration (IC50) came out at 799 nM.

Turning to `CCc1cnc(N2CCC(NC3CCCCC3)C(O)C2)c(C(=O)OC)c1` (stereo not shown) [compound 133], the concentration for half-maximal inhibition (IC50) is 272 nM. In the case of `CCOC(=O)c1cc(Br)cnc1N1CC[C@@H](NC2CCCCC2)[C@H](O)C1` [compound 134], the 50% inhibitory concentration (IC50) came to 23 nM. The figure for `CC(C)OC(=O)c1cc(Br)cnc1N1CC[C@@H](NC2CCCCC2)[C@H](O)C1` [compound 135] is 1630 nM.

In the case of `Cc1noc(-c2cc(Br)cnc2N2CC[C@@H](NC3CCCCC3)[C@H](O)C2)n1` [compound 136], the IC50 was 49 nM. Under `CCc1noc(-c2cc(Br)cnc2N2CC[C@@H](NC3CCCCC3)[C@H](O)C2)n1` [compound 137] stands 1600 nM. As to `CN(C)C(=O)c1cc(Br)cnc1N1CC[C@@H](NC2CCCCC2)[C@H](O)C1` [compound 138], the IC50 worked out at 3200 nM. With `CCN(CC)C(=O)c1cc(Br)cnc1N1CC[C@@H](NC2CCCCC2)[C@H](O)C1` [compound 139], the IC50 worked out at 4800 nM. The figure for `COC1CN(c2ncc(Br)cc2-c2nc(C)no2)CCC1NC1CCCCC1` (stereo not shown) [compound 143] is 100 nM; for `CC(=O)c1cc(Br)cnc1N1CCC(NC2CCCCC2)C(CO)C1` (stereo not shown) [compound 144] it is 4800 nM. The figure for `Cc1noc(-c2cc(Br)cnc2N2CCC(NC3CCCCC3)C(CO)C2)n1` (stereo not shown) [compound 145] is 117 nM. Regarding `CCOC(=O)c1cc(Br)cnc1N1CCC(NC2CCCCC2)C(OC)C1` (stereo not shown) [compound 146], the concentration for half-maximal inhibition (IC50) was 85 nM. Regarding `COC(=O)c1cccnc1N1CC[C@@H](NC2CCCCC2)[C@H](O)C1` [compound 148], the IC50 was determined as 5800 nM. The figure for `COC(=O)c1cccnc1N1CCC(NC2CCCCC2)C(CO)C1` (stereo not shown) [compound 149] is 5400 nM; for `O[C@@H]1CN(c2ncc(Br)cc2-c2nc(C3CC3)no2)CC[C@H]1NC1CCCCC1` [compound 150] it is 9100 nM.

As for `OCC1CN(c2ncc(Br)cc2-c2nc(C3CC3)no2)CCC1NC1CCCCC1` (stereo not shown) [compound 151], the IC50 was determined as 2100 nM. Take `Cc1cnc(N2CCC(NC3CCCCC3)C(CO)C2)c(-c2nc(C)no2)c1` (stereo not shown) [compound 152]: the IC50 is 30 nM. The figure for `CCOC(=O)c1cc(C)c(C)nc1N1CC[C@@H](NC2CCCCC2)[C@H](O)C1` [compound 153] is 191 nM.

Regarding `Cc1noc(-c2cc(C)c(C)nc2N2CC[C@@H](NC3CCCCC3)[C@H](O)C2)n1` [compound 154], the IC50 turned out to be 146 nM. Regarding `Cc1noc(-c2cc(C3CC3)cnc2N2CC[C@@H](NC3CCCCC3)[C@H](O)C2)n1` [compound 155], the IC50 was 1300 nM. The figure for `CCc1cnc(N2CC[C@@H](NC3CCCCC3)[C@H](O)C2)c(-c2nc(C)no2)c1` [compound 156] is 1000 nM; for `COC(=O)c1cc2ccccc2nc1N1CCC(NC2CCCCC2)C(CO)C1` (stereo not shown) [compound 157] it is 37 nM; for `COC(=O)c1cc2ccccc2nc1N1CCC(NC2CCCCC2)C(OC)C1` (stereo not shown) [compound 158] it is 431 nM. Under `CCOC(=O)c1cc(C)c(C)nc1N1CCC(NC2CCCCC2)C(CO)C1` (stereo not shown) [compound 159] stands 35 nM. Under `COC(=O)c1cc2ccccc2nc1N1CC[C@@H](NC2CCCCC2)[C@H](O)C1` [compound 160] stands 209 nM; under `COC(=O)c1cc(C)c(C)nc1N1CC[C@@H](NC2CCCCC2)[C@H](O)C1` [compound 161], 157 nM. `COC(=O)c1cc(C)c(C)nc1N1CCC(NC2CCCCC2)C(CO)C1` (stereo not shown) [compound 162]: the half-inhibitory concentration (IC50) was 1400 nM. Regarding `COC(=O)c1cc(C)c(C)nc1N1CCC(NC2CCCCC2)C(OC)C1` (stereo not shown) [compound 163], the concentration for half-maximal inhibition (IC50) worked out at 915 nM.

With `Cc1noc(-c2cc(C)c(C)nc2N2CCC(NC3CCCCC3)C(CO)C2)n1` (stereo not shown) [compound 164], the IC50 stood at 62 nM. Under `COC1CN(c2nc(C)c(C)cc2-c2nc(C)no2)CCC1NC1CCCCC1` (stereo not shown) [compound 165] stands 19 nM; under `COC(=O)c1cc(C)nnc1N1CC[C@@H](NC2CCCCC2)[C@H](O)C1` [compound 166], 32 nM.
